Km data for four compounds are collected here from PMC12024561, “Production, Biochemical Characterization, and Application of Laccase from Halophilic Curvularia lunata MLK46 Recovered from Mangrove Rhizosphere” (Biology, 2025).

As usually defined, the Km is the concentration of substrate that gives half-maximal velocity.

This assay concerns T1, laccase from C. lunata MLK46 (MLK46 laccase).
T1 construct: gene EC 1.10.3.2; secreted native enzyme purified from culture filtrate (ammonium sulphate, DEAE-Sepharose)
The assay can be described thus: spectrophotometric oxidation assay, Lineweaver-Burk. The class given is biochemical, Curvularia lunata. The note with it: free enzyme, O2 as electron acceptor, pH and temperature of kinetics not clearly stated ("stated conditions").

Regarding `Oc1c(Cl)cccc1Cl` [2,6-dichlorophenol], the Km amounted to 5.55 mM.
Take `CCn1c(=NN=c2sc3cc(S(=O)(=O)O)ccc3n2CC)sc2cc(S(=O)(=O)O)ccc21` [ABTS, 2,2’-azino-bis(3-ethylbenzothiazoline-6-sulfonic acid)]: the Km (A420, standard assay at 50 °C) amounted to 4.17 mM.
Consider `COc1cc(-c2ccc(N)c(OC)c2)ccc1N` [o-dianisidine], for which the Km was 2.7 mM.
Consider `COc1ccccc1O` [guaiacol], for which the Km turned out to be 10.3 mM.
